According to patent publication US10375962B2, “Heterocycle derivatives as pesticides” (BAYER CROPSCIENCE AKTIENGESELLSCHAFT, priority 2016, dated 2019):
Read-outs that look alike come from different tables or passages of the source.

Columns and labels:
[1] = test system: greenhouse red spider mite (Tetranychus urticae); assay: Tetranychus urticae - spray test, OP-resistant; type: in vivo; settings: bean leaf discs, after 6 days
Protocol: (§1) Solvent: 78.0 parts by weight of acetone • • 1.5 parts by weight of dimethylformamide
(§2) Emulsifier: alkylaryl polyglycol ether
(§3) To produce a suitable active compound formulation, 1 part by weight of active compound is dissolved with the stated parts by weight of solvent and made up with water containing an emulsifier concentration of 1000 ppm until the desired concentration is attained. To produce further test concentrations, the formulation is diluted with emulsifier-containing water.
Discs of bean leaves (Phaseolus vulgaris) infested with all stages of the greenhouse red spider mite (Tetranychus urticae) are sprayed with an active compound formulation of the desired concentration.
After 6 days, the efficacy in % is determined. 100% means that all the spider mites have been killed; 0% means that no spider mites have been killed.

[2] = log P by HPLC on a reversed-phase column (C 18), EEC Directive 79/831 Annex V.A8; type: physicochemical; settings: for chromatographic logP: reversed-phase HPLC column (C 18)
From the text: Called log P (HCOOH) in the table.
Called log P (neutral) in the table.

[3] = test system: larvae of the mustard beetle (Phaedon cochleariae); assay: Phaedon cochleariae - spray test; type: in vivo; settings: after 7 days
Protocol: as §1, §2, §3
Discs of Chinese cabbage leaves (Brassica pekinensis) are sprayed with an active compound formulation of the desired concentration and, after drying, populated with larvae of the mustard beetle (Phaedon cochleariae).
After 7 days, the efficacy in % is determined. 100% means that all the beetle larvae have been killed and 0% means that none of the beetle larvae have been killed.

[4] = test system: adult cat fleas (Ctenocephalides felis); assay: Ctenocephalides felis - in vitro contact tests with adult cat fleas; type: in vivo; settings: application rate 5 μg/cm^2; after 48 h
Protocol: For the coating of the test tubes, 9 mg of active compound are first dissolved in 1 ml of acetone p.a. and then diluted to the desired concentration with acetone p.a. 250 μl of the solution are distributed homogeneously on the inner walls and the base of a 25 ml test tube by turning and rocking on an orbital shaker (rocking rotation at 30 rpm for 2 h). With 900 ppm of active compound solution and internal surface area 44.7 cm^2, given homogeneous distribution, an area-based dose of 5 μg/cm^2 is achieved.
After the solvent has evaporated off, the tubes are populated with 5-10 adult cat fleas (Ctenocephalides felis), sealed with a perforated plastic lid and incubated in a horizontal position at room temperature and ambient humidity. After 48 h, efficacy is determined. To this end, the test tubes are stood upright and the fleas are knocked to the base of the tube. Fleas which remain motionless at the base or move in an uncoordinated manner are considered to be dead or moribund.
100% efficacy means that all the fleas were dead or moribund. 0% efficacy means that no fleas were harmed.

[5] = test system: caterpillars of the armyworm (Spodoptera frugiperda); assay: Spodoptera frugiperda - spray test; type: in vivo; settings: maize leaf discs, after 7 days
Protocol: Solvent: 78.0 parts by weight of acetone • • 1.5 parts by weight of dimethylformamide Emulsifier: alkylaryl polyglycol ether […] To produce further test concentrations, the formulation is diluted with emulsifier-containing water. Leaf discs of maize (Zea mays) are sprayed with an active compound preparation of the desired concentration and, after drying, populated with caterpillars of the armyworm (Spodoptera frugiperda).

[6] = test system: green peach aphid (Myzus persicae); assay: Myzus persicae spray test (bell pepper plants); type: in vivo; settings: application rate 20 ppm, after 6 days
Protocol: Solvent: 14 parts by weight of dimethylformamide
as §2
as §3, with “water. If the addition of ammonium salts or/and penetrants is required, these are each added in a concentration of 1000 ppm to the formulation solution.” for “water.”
Bell pepper plants (Capsicum annuum) severely infested with the green peach aphid (Myzus persicae) are treated by spraying with the active compound formulation in the desired concentration.
After 6 days, the kill in % is determined. 100% means that all of the aphids have been killed; 0% means that none of the aphids have been killed.

[7] = test system: L1 larvae of the Australian sheep blowfly (Lucilia cuprina); assay: Lucilia cuprina test; type: in vivo; settings: application rate 100 ppm; after 2 days
Protocol: (§4) Solvent: dimethyl sulphoxide
(§5) To produce a suitable active compound formulation, 10 mg of active compound are mixed with 0.5 ml of dimethyl sulphoxide, and the concentrate is diluted with water to the desired concentration.
About 20 L1 larvae of the Australian sheep blowfly (Lucilia cuprina) are transferred into a test vessel containing minced horsemeat and the active compound formulation of the desired concentration.
After 2 days, the kill in % is determined. 100% means that all the larvae have been killed; 0% means that no larvae have been killed.

[8] = test system: unfed adult cat fleas (Ctenocephalides felis); assay: Ctenocephalides felis - oral test; type: in vivo; settings: application rate 100 ppm in citrated cattle blood; after 2 days
Protocol: as §4
For the purpose of production of a suitable active compound formulation, 10 mg of active compound are mixed with 0.5 ml of dimethyl sulphoxide. Dilution with citrated cattle blood gives the desired concentration.
About 20 unfed adult cat fleas (Ctenocephalides felis) are placed into a chamber which is closed at the top and bottom with gauze. A metal cylinder whose bottom end is closed with parafilm is placed onto the chamber. The cylinder contains the blood/active compound formulation, which can be imbibed by the fleas through the parafilm membrane.
After 2 days, the kill in % is determined. 100% means that all of the fleas have been killed; 0% means that none of the fleas have been killed.

[9] = test system: adult houseflies (Musca domestica); assay: Musca domestica test; type: in vivo; settings: application rate 100 ppm; after 2 days
Protocol: as §4, §5
Vessels containing a sponge treated with sugar solution and the active compound formulation of the desired concentration are populated with 10 adult houseflies (Musca domestica).
After 2 days, the kill in % is determined. 100% means that all of the flies have been killed; 0% means that none of the flies have been killed.

[10] = test system: engorged adult female cattle ticks (Boophilus microplus); assay: Boophilus microplus - injection test; type: in vivo; settings: application rate 20 μg/animal, after 7 days
Protocol: as §4
To produce a suitable active compound formulation, 10 mg of active compound are mixed with 0.5 ml of solvent and the concentrate is diluted with solvent to the desired concentration.
1 μl of the active compound solution is injected into the abdomen of 5 engorged adult female cattle ticks (Boophilus microplus). The animals are transferred into dishes and kept in a climate-controlled room.
Efficacy is assessed after 7 days by laying of fertile eggs. Eggs which are not visibly fertile are stored in a climate-controlled cabinet until the larvae hatch after about 42 days. An efficacy of 100% means that none of the ticks has laid any fertile eggs; 0% means that all the eggs are fertile.

[11] = test system: green peach aphid (Myzus persicae); assay: Myzus persicae - spray test (Chinese cabbage leaf discs); type: in vivo; settings: after 5 days
Protocol: Solvent: 78 parts by weight of acetone • • 1.5 parts by weight of dimethylformamide Emulsifier: alkylaryl polyglycol ether
as §3
Discs of Chinese cabbage leaves (Brassica pekinensis) infested by all stages of the green peach aphid (Myzus persicae) are sprayed with an active compound formulation of the desired concentration.
After 5 days, the efficacy in % is determined. 100% means that all the aphids have been killed and 0% means that none of the aphids have been killed.

[12] = acidic range, pH 2.7, 0.1% aqueous formic acid/acetonitrile, 55° C.
[13] = neutral range, pH 7.8, 0.001 molar aqueous ammonium hydrogencarbonate/acetonitrile, 55° C.

| SMILES | efficacy ([3]; application rate 100 g/ha) [%] | efficacy ([3]; application rate 500 g/ha) [%] | efficacy (fleas dead or moribund) [4] [%] | efficacy ([5]; application rate 100 g/ha) [%] | efficacy ([5]; application rate 500 g/ha) [%] | efficacy (kill) [7] [%] | efficacy (kill) [8] [%] | LOGP_NEUTRAL (log P (neutral)) ([2]; pH 7.8) | LOGP_HCOOH (log P (HCOOH)) ([2]; pH 2.7) | also measured |
| --- | --- | --- | --- | --- | --- | --- | --- | --- | --- | --- |
| CCS(=O)(=O)c1ccc(-n2ncc3ccc(Cl)cc32)nc1-c1nc2cc(C(F)(F)F)ncc2n1C [Example I-2, 2-[6-(6-Chloroindazol-1-yl)-3-ethylsulphonyl-2-pyridyl]-3-methyl-6-(trifluoromethyl)imidazo[4,5-c]pyridine] |  |  |  |  |  |  |  |  |  | efficacy ([1]; application rate 500 g/ha): 70%; chromatographic logP ([2]; acidic range, pH 2.7, 0.1% aqueous formic acid/acetonitrile, 55° C., read-out: LOGP_HCOOH (log P (HCOOH))): 4.01; chromatographic logP ([2]; neutral range, pH 7.8, 0.001 molar aqueous ammonium hydrogencarbonate/acetonitrile, 55° C., read-out: LOGP_NEUTRAL (log P (neutral))): 3.92 |
| CCS(=O)(=O)c1ccc(N2Cc3cccnc3C2)nc1-c1nc2cc(C(F)(F)F)ncc2n1C [Example I-22] | 100 | 100 | 100 | 100 | 100 | 100 | 100 |  |  | efficacy (kill) [6]: 99%; LOGP_HCOOH (log P (HCOOH)) [2, 12]: 2.44; LOGP_NEUTRAL (log P (neutral)) [2, 13]: 2.46 |
| CCS(=O)(=O)c1ccc(-n2cnc3nc(Cl)ccc32)nc1-c1nc2cc(C(F)(F)F)ncc2n1C [Example I-35] | 83 | 100 | 100 |  |  |  | 95 | 2.53 |  |  |
| CCS(=O)(=O)c1ccc(N2Cc3ccc(Cl)cc3C2=O)nc1-c1nc2cc(C(F)(F)F)ncc2n1C [Example I-34] | 100 | 100 | 100 | 100 | 100 | 100 | 95 | 3.79 | 3.83 | efficacy (kill) [6]: 100% |
| CCS(=O)(=O)c1ccc(-n2nc3c(Cl)cc(C(F)(F)F)cn3c2=O)nc1-c1nc2cc(C(F)(F)F)ncc2n1C [Example I-32] | 100 | 100 |  | 83 | 100 | 100 | 100 | 3.39 |  | efficacy (kill) [9]: 100% |
| CCS(=O)(=O)c1ccc(-n2nnc3ccccc32)nc1-c1nc2cc(C(F)(F)F)ncc2n1C [Example I-39] |  |  |  |  |  |  |  | 3.21 |  | efficacy ([1]; application rate 100 g/ha): 70% |
| CCS(=O)(=O)c1ccc(-n2ncc3cnccc32)nc1-c1nc2cc(C(F)(F)F)ncc2n1C [Example I-11] |  | 83 |  |  |  |  |  |  |  | efficacy (laying of fertile eggs) [10]: 90%; LOGP_HCOOH (log P (HCOOH)) [2, 12]: 1.75; LOGP_NEUTRAL (log P (neutral)) [2, 13]: 2.47 |
| CCS(=O)(=O)c1ccc(-n2cnc3cc(Cl)ccc32)nc1-c1nc2cc(C(F)(F)F)ncc2n1C [Example I-17] | 100 | 100 |  | 100 | 100 |  | 100 | 3.12 | 3.19 | efficacy (kill) [6]: 90% |
| CCS(=O)(=O)c1ccc(-c2ccc3nn(C)cc3c2)nc1-c1nc2cc(C(F)(F)F)ncc2n1C [Example I-15] | 100 | 100 |  |  | 100 | 100 |  | 2.58 | 2.62 | efficacy ([1]; application rate 500 g/ha): 90% |
| CCS(=O)(=O)c1ccc(-n2nc3ccccn3c2=O)nc1-c1nc2cc(C(F)(F)F)ncc2n1C [Example I-43] |  |  |  |  |  |  |  | 2.31 | 2.26 | efficacy ([1]; application rate 100 g/ha): 90%; efficacy ([11]; application rate 100 g/ha): 90% |
| CCS(=O)(=O)c1ccc(N2Cc3ccccc3C2=O)nc1-c1nc2cc(C(F)(F)F)ncc2n1C [Example I-31] | 100 | 100 | 100 | 100 | 100 | 100 |  |  |  | efficacy ([1]; application rate 500 g/ha): 90%; LOGP_HCOOH (log P (HCOOH)) [2, 12]: 3.32; LOGP_NEUTRAL (log P (neutral)) [2, 13]: 3.28 |
| CCS(=O)(=O)c1ccc(-n2cnc3ccccc32)nc1-c1nc2cc(C(F)(F)F)ncc2n1C [Example I-24] |  | 83 | 100 | 83 | 100 |  | 95 | 2.64 | 2.66 | efficacy ([11]; application rate 100 g/ha): 100%; efficacy ([11]; application rate 500 g/ha): 90% |
| CCS(=O)(=O)c1ccc(-n2cc3cccc(Cl)c3n2)nc1-c1nc2cc(C(F)(F)F)ncc2n1C [Example I-5] |  | 100 |  | 100 | 100 | 100 |  |  |  | efficacy ([11]; application rate 100 g/ha): 70%; efficacy ([11]; application rate 500 g/ha): 90%; efficacy (laying of fertile eggs) [10]: 80%; LOGP_HCOOH (log P (HCOOH)) [2, 12]: 3.94; LOGP_NEUTRAL (log P (neutral)) [2, 13]: 3.92 |
| CCS(=O)(=O)c1ccc(N2Cc3ccccc3C2)nc1-c1nc2cc(C(F)(F)F)ncc2n1C [Example I-21] |  | 83 | 80 | 100 | 100 | 100 | 90 | 3.63 | 3.59 | efficacy (kill) [6]: 100% |
